Results published in patent publication US11866407B2 (priority 2021, dated 2024).
Where two headings read alike, the source gives them in different places. Residues, ends and D or L forms follow the SMILES beside them. *: point of attachment. Cbz = O=C(OCc1ccccc1)*; CH2F = FC*

Key:
[1] = biological target: SARS-CoV-2 M^pro (Severe acute respiratory syndrome coronavirus 2, UniProt P0DTD1); experiment: FRET-based enzymatic assay, SARS-CoV-2 Mpro; format: biochemical
[2] = biological target: PL^pro (Severe acute respiratory syndrome coronavirus 2, UniProt P0DTD1); experiment: PLpro protease inhibition (Table 2); format: biochemical, SARS-CoV-2
[3] = Cytotoxicity in Vero E6 cells; conditions: African green monkey
[4] = Cytotoxicity in Calu-3 cells; format: cell-based; conditions: human
[5] = in vitro; conditions: African green monkey
[6] = tested on: SARS-CoV-2; experiment: Antiviral activity in Calu-3 cells (Table 2); format: cell-based; conditions: Severe acute respiratory syndrome coronavirus 2, Calu-3
[7] = in vitro; conditions: human
[8] = in vitro; conditions: human, Caco-2
[9] = biological target: T1, cathepsin L (Homo sapiens, UniProt P07711); experiment: Cathepsin L enzymatic assay; format: biochemical
T1 construct: purchased EMD Millipore 219402
T1 sequence (P07711 114-333): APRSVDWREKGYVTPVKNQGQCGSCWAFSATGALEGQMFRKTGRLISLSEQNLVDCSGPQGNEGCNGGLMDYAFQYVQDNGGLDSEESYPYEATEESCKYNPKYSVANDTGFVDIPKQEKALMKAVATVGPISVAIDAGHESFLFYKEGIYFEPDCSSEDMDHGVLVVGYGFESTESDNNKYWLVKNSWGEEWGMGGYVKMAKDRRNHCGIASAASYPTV
Procedure: (§1) Calpain I, Cathepsin L and Cathepsin K enzymatic assays were carried as previously described.^33

[10] = biological target: T2, calpain I (Homo sapiens, UniProt P07384); experiment: Calpain I enzymatic assay; format: biochemical
T2 construct: purchased Sigma-Aldrich C6108
T2 sequence (P07384 1-714): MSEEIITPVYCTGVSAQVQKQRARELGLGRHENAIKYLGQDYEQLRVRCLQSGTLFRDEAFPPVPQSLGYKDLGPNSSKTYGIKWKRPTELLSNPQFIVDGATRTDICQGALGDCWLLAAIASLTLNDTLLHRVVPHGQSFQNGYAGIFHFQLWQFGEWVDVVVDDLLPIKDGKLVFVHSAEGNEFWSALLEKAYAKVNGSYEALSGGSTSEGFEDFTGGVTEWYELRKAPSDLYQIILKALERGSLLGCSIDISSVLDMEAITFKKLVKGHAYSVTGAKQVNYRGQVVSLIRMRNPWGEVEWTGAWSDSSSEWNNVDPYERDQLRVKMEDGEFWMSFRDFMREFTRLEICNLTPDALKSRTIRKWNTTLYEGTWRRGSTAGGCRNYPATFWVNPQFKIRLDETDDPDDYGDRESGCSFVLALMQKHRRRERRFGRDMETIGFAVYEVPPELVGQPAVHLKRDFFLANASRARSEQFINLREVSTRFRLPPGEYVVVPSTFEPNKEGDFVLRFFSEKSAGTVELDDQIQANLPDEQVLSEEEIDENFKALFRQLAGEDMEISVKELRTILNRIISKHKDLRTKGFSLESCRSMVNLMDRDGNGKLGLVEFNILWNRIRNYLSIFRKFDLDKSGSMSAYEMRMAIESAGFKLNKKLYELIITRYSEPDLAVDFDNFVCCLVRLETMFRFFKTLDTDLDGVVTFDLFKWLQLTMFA
T2 sequence (P04632 1-268 partner): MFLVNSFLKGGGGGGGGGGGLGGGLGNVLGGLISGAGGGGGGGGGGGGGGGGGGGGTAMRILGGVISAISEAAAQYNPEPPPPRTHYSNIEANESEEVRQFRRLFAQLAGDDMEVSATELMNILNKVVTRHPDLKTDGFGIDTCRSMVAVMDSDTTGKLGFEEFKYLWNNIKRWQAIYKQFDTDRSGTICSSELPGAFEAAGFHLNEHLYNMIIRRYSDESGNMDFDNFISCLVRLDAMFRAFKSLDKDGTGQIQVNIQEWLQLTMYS
Procedure: as §1

[11] = tested on: HCoV-OC43; experiment: HCoV-OC43 plaque assay; format: cell-based; conditions: Betacoronavirus 1, OC43, RD cells
[12] = tested on: SARS-CoV-2; experiment: SARS-CoV-2 antiviral immunofluorescence assay; format: cell-based; conditions: both cell lines (Vero E6 and Caco2-ACE2)
[13] = tested on: M^pros from all seven human coronaviruses; experiment: Thermal shift binding assay (DSF); conditions: indicating protein stabilization
[14] = tested on: HCoV-NL63; experiment: HCoV-NL63 CPE assay; format: cell-based; conditions: with vs without CP-100356
[15] = tested on: HCoV-229E; experiment: HCoV-229E CPE assay; format: cell-based; conditions: Human coronavirus 229E
[16] = biological target: T3, caspase-3 (Homo sapiens, UniProt P42574); experiment: Caspase-3 enzymatic assay; format: biochemical
T3 construct: purchased BioVision 1083-25
T3 sequence (P42574 29-175 limits assumed): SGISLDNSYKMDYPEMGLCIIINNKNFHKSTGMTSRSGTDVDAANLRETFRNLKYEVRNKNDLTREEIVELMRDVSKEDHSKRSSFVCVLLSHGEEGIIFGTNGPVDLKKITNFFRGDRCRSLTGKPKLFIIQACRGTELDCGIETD
T3 sequence (P42574 176-277 limits assumed): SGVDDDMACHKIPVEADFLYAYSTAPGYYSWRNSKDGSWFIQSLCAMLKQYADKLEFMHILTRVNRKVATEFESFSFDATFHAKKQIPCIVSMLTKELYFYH
Procedure: Caspase-3 enzymatic assay was carried out as follows: 1 unit Caspase-3 protein was diluted into 1600 μl reaction buffer (20 mM HEPES pH7.4, 2 mM EDTA, 0.1% CHAPS and 5 mM DTT); 100 μl diluted protein was incubated with 1 μl various concentration of testing compounds for 30 min at 30° C.; the enzymatic reaction was initiated by adding 1 μl of 2 mM Ac-DEVD-AFC (Medchemexpress, Catalog #HY-P1005). The reaction was monitored a Molecular Devices SpectraMax iD3 plate reader with excitation at 400 nm and emission at 505 nm at 30° C. for 1 hour. The IC50 values were calculated as described in the previous section.

CC(C)C[C@H](NC(=O)OCc1ccc(NC(=O)CCC(=O)NCCOCCOCCNc2cccc3c2C(=O)N(C2CCC(=O)N(C)C2=O)C3=O)cc1)C(=O)N[C@@H](C[C@@H]1CCNC1=O)C(=O)C(=O)NC1CC1 (stereo partly shown)
IC50 [1]: 110 nM

CC(C)C[C@H](NC(=O)OCc1ccc(NC(=O)CCC(=O)NCCOCCOCCNc2cccc3c2C(=O)N(C2CCC(=O)NC2=O)C3=O)cc1)C(=O)N[C@@H](C[C@@H]1CCNC1=O)C(=O)C(=O)NC1CC1 (stereo partly shown)
IC50 [2]: > 20000 nM
CC50 [3]: > 250000 nM
CC50 [4]: > 250000 nM
IC50 [1]: 110 nM

C#CCCC(=O)Nc1ccc(COC(=O)N[C@@H](CC(C)C)C(=O)N[C@@H](C[C@@H]2CCNC2=O)C(=O)C(=O)NC2CC2)cc1
IC50 [2]: > 20000 nM
CC50 [3]: > 250000 nM
CC50 [4]: > 250000 nM
IC50 [1]: 150 nM

O=C(NC1CC1)C(=O)[C@H](C[C@@H]1CCNC1=O)NC(=O)C1[C@H]2CCC[C@H]2CN1C(=O)OCc1ccccc1 (stereo partly shown)
IC50 [1]: 130 nM
CC50 [5]: > 250000 nM

CC1(C)[C@@H]2C(C(=O)N[C@@H](C[C@@H]3CCNC3=O)C(=O)C(=O)NC3CC3)N(C(=O)OCc3ccccc3)C[C@@H]21 (stereo partly shown)
IC50 [1]: 200 nM
CC50 [5]: > 250000 nM

CC(C)C[C@H](NC(=O)OCC1CCC(F)(F)CC1)C(=O)N[C@@H](C[C@@H]1CCNC1=O)C(=O)C(=O)NC1CC1
IC50 [1]: 60 nM
EC50 [6]: 2600 nM
CC50 [5]: > 250000 nM

O=C(N[C@H](C(=O)N[C@@H](C[C@@H]1CCNC1=O)C(=O)C(=O)NC1CC1)C1CCCCC1)OCc1ccccc1
IC50 [2]: > 20000 nM
IC50 [1]: 380 nM

CC(C)C[C@H](NC(=O)[C@H](Cc1ccccc1)NC(=O)OCc1ccccc1)C(=O)N[C@@H](C[C@@H]1CCNC1=O)C(=O)C(=O)NC(C)C
IC50 [2]: > 20000 nM
IC50 [1]: 130 nM

CC(C)C[C@H](NC(=O)[C@H](Cc1ccccc1)NC(=O)OCc1ccccc1)C(=O)N[C@@H](C[C@@H]1CCNC1=O)C(=O)C(=O)NCc1ccccc1
IC50 [2]: > 20000 nM
IC50 [1]: 90 nM

CC(C)[C@H](NC(=O)OCc1ccccc1)C(=O)N[C@@H](C[C@@H]1CCNC1=O)C(=O)C(=O)NC1CC1
IC50 [1]: 1290 nM

O=C(N[C@@H](Cc1ccc(F)cc1)C(=O)N[C@@H](C[C@@H]1CCNC1=O)C(=O)C(=O)NC1CC1)OCc1ccccc1
IC50 [1]: 5500 nM

O=C(N[C@@H](Cc1ccccc1)C(=O)N[C@@H](C[C@@H]1CCNC1=O)C(=O)C(=O)NC1CC1)OCc1ccccc1
CC50 [7]: > 100000 nM
CC50 [8]: > 100000 nM
IC50 [1]: 780 nM

CC(C)C[C@H](NC(=O)OCc1ccccc1)C(=O)N[C@@H](C[C@@H]1CCNC1=O)C(=O)C(=O)NC1CC1
CC50 [7]: > 100000 nM
CC50 [8]: > 100000 nM
IC50 ([1]; read-out: SARS-CoV-2 M^pro IC50, Table 2): 45 nM

CCOC(=O)/C=C/[C@H](C[C@@H]1CCNC1=O)NC(=O)[C@H](CC(C)C)NC(=O)OCc1ccccc1
IC50 [1]: 1710 nM

CC(C)C[C@H](NC(=O)OCc1ccccc1)C(=O)N[C@@H](CC(C)C)C(=O)N[C@@H](C[C@@H]1CCNC1=O)C(=O)C(=O)NC1CC1
IC50 [1]: 12 nM

CC(C)C[C@H](NC(=O)[C@@H](NC(=O)OCc1ccccc1)C(C)C)C(=O)N[C@@H](C[C@@H]1CCNC1=O)C(=O)C(=O)NC1CC1
IC50 [1]: 14 nM

CC(C)C[C@H](NC(=O)[C@H](Cc1ccccc1)NC(=O)OCc1ccccc1)C(=O)N[C@@H](C[C@@H]1CCNC1=O)C(=O)C(=O)NC1CC1
IC50 [1]: 13 nM

O=C(N[C@@H](Cc1ccccc1)C(=O)N[C@@H](C[C@@H]1CCNC1=O)C(O)S(=O)(=O)[O][Na+])OCc1ccccc1 (stereo partly shown)
IC50 [1]: 40 nM

CC(C)C[C@H](NC(=O)OCc1ccccc1)C(=O)N[C@@H](CC1CCNC1=O)C(O)S(=O)(=O)O (stereo partly shown) [GC-376]
IC50 [9]: 4.4 nM
IC50 [10]: 74 nM

O=CC(CC1CCNC1=O)NC(=O)C1C2CCCC2CN1C(=O)OCc1ccccc1 (stereo not shown) [UAWJ9-36-1]
EC50 [11]: 46 nM
antiviral potency against SARS-CoV-2 relative to GC-376 [12]: less potent than GC-376
melting temperature shift (ΔTm) [13]: significantly increased
antiviral activity against HCoV-NL63 in Vero E6 cells in the presence of P-gp inhibitor CP-100356 [14]: increased
EC50 [15]: 170 nM

CC1(C)C2CN(C(=O)OCc3ccccc3)C(C(=O)NC(C=O)CC3CCNC3=O)C21 (stereo not shown) [UAWJ9-36-3]
EC50 [11]: 59 nM
antiviral activity against HCoV-NL63 in Vero E6 cells in the presence of P-gp inhibitor CP-100356 [14]: increased
EC50 [15]: 130 nM

COC(=O)C[C@H](NC(=O)[C@H](C)NC(=O)[C@@H](NC(=O)OCc1ccccc1)C(C)C)C(=O)CF [Z-VAD-FMK] (Cbz-Val-Ala-Asp(OMe)-CH2F)
IC50 [16]: 100 ± 40 nM
